The test system of series [1] is Mus musculus. In words: Ability to inhibit seizures induced by pentylenetetrazole in mice administered per orally. Type of series: functional. Conditions: po.
Series [2] is described as follows: (§1) Acute toxicity administered per orally. Conditions: mouse, in vivo, po. Type of series: organism-based.
Series [3] concerns Rattus norvegicus. Put plainly: Ability to potentiate pentobarbital-induced sleep administered per orally. The note with it: po. Type of series: functional.
For series [4], the system named is Mus musculus. Put plainly: Ability to inhibit seizures induced by mercaptopropionic acid in mice administered per orally; i = inactive. Type of series: functional, organism-based.
Series [5] deals with Mus musculus. Put plainly: Ability to inhibit seizures induced by electroshock in mice administered per orally; i = inactive. Type of series: functional, organism-based.
Series [6] has as its system Rattus norvegicus. Put plainly: Ability to potentiate pentobarbital-induced sleep administered per orally; i = inactive. Type of series: functional, organism-based.
Series [7] concerns Mus musculus. The series is described as §1. Type of series: functional. The note with it: po.
Series [8] relates to Mus musculus. Put plainly: Ability to inhibit seizures induced by mercaptopropionic acid in mice administered per orally. Type of series: functional. The note with it: po.
The subject of series [9] is Mus musculus. In words: Ability to inhibit seizures induced by electroshock in mice administered per orally. Type of series: functional. The note with it: po.

This is an account of results in ChEMBL document CHEMBL1125120, “Synthesis and anticonvulsant and sedative-hypnotic activity of 4-(alkylimino)-2,3-dihydro-4H-1-benzopyrans and -benzothiopyrans” (J Med Chem, 1990).

Activity calls are given as the source filed them. The rule behind the calls is not given here.

What is called ED50 is the dose at which the effect has come halfway, by size or by number of responders. For orientation: LD50 means the dose at which mortality reaches 50%. Low values mean greater toxicity, high ones lower toxicity. For the compound `CCCCc1cc(O)c2c(c1)OC(C)(C)C[C@H]2NCC(C)O` (stereo not given in full), the ED50 in the series with Mus musculus [1] came out at 15.5 mg/kg; with Rattus norvegicus [3] it was 14.2 mg/kg. In [2], this compound yielded an LD50 of 800 mg/kg. Further, the ED50 result in the series with Mus musculus [4] and with Mus musculus [5] was “inactive” throughout.
In the series on Mus musculus [1], `CCCCCc1cc(O)c2c(c1)OC(C)(C)C/C2=N\CCO` displayed an ED50 of 19 mg/kg. Besides, the LD50 in series [2] was over 800 mg/kg. Also, the ED50 entry in the series with Rattus norvegicus [6], with Mus musculus [4] and in the series with Mus musculus [5] was “inactive” in each case.
For the compound `CCCCCc1cc(O)c2c(c1)OC(C)(C)C/C2=N\CC(C)O` (stereo not given), the ED50 in the series on Mus musculus [1] was determined as 24.3 mg/kg. Moreover, the LD50 in series [2] came out at 800 mg/kg. The ED50 entry in the series with Rattus norvegicus [6], with Mus musculus [4] and in the series with Mus musculus [5] was “inactive” in each case.
`CCCCCc1cc(O)c2c(c1)SC(C)(C)C/C2=N\CCO` showed an LD50 in the series on Mus musculus [7] of over 800 mg/kg. The compound also yielded an ED50 in the series with Mus musculus [1] of 24 mg/kg. The ED50 result with Rattus norvegicus [6], in the series with Mus musculus [4] and in the series on Mus musculus [5] was “inactive” in each case.
For the compound `CCCCCc1cc(O)c2c(c1)SC(C)(C)C/C2=N\CC(C)O` (stereo not given), the ED50 came out at 14.3 mg/kg in the series on Mus musculus [1] and 10 mg/kg with Rattus norvegicus [3]. The same compound came in with an LD50 in [2] of over 800 mg/kg. The ED50 result in the series with Mus musculus [5] was “inactive”.
With `CCCCCc1cc(O)c2c(c1)OC(C)(C)C/C2=N\C[C@@H](C)O`, the figures for the ED50 in the series with Mus musculus [8], in the series on Mus musculus [1] and in the series on Mus musculus [9] were 9.4 mg/kg, 14 mg/kg and 13.8 mg/kg, respectively. The LD50 in series [2] stood at 800 mg/kg. Also, the ED50 entry in the series with Rattus norvegicus [6] is “inactive”.
Take `CCCCCc1cc(O)c2c(c1)SC(C)(C)C[C@H]2NCC(C)O` (stereo not given in full): the ED50 with Mus musculus [8] worked out at 8.8 mg/kg; with Mus musculus [1], 4.8 mg/kg; in the series on Mus musculus [9], 20.6 mg/kg; with Rattus norvegicus [3], 9.7 mg/kg. Further, the LD50 in series [2] is over 1600 mg/kg.
Consider `CN1C(=O)CN=C(c2ccccc2)c2cc(Cl)ccc21` [DIAZEPAM], for which the ED50 in the series with Mus musculus [8] came to 0.7 mg/kg; with Mus musculus [1] it was 0.5 mg/kg; with Mus musculus [9], 1.2 mg/kg.
Turning to `CCCC(CCC)C(=O)[O-].[Na+]` [VALPROATE SODIUM], the ED50 came out at 200 mg/kg in the series on Mus musculus [8], 200 mg/kg in the series on Mus musculus [1] and 206 mg/kg in the series on Mus musculus [9].
